Laboratory results taken from PubChem BioAssay AID2425 (Vanderbilt High Throughput Screening Facility, 2010).
Activity calls are given as the source filed them.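 Rule for the calls: active = fitted dose-response curve with goodness of fit R² above 0.5; inactive = the rest.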

Target: Muscarinic acetylcholine receptor M1 (Rattus norvegicus) (UniProt P08482)
Experiment: concentration-dependent potentiation of ACh at M1 – cell-based, calcium mobilization, CHO-K1, ACh EC20, dose response (AID 2425)
Details: CHO-K1 rat M1, Fluo-4 calcium, PAM with ACh EC20

Sequence of Muscarinic acetylcholine receptor M1 (Rattus norvegicus) (P08482 whole entry, looked up): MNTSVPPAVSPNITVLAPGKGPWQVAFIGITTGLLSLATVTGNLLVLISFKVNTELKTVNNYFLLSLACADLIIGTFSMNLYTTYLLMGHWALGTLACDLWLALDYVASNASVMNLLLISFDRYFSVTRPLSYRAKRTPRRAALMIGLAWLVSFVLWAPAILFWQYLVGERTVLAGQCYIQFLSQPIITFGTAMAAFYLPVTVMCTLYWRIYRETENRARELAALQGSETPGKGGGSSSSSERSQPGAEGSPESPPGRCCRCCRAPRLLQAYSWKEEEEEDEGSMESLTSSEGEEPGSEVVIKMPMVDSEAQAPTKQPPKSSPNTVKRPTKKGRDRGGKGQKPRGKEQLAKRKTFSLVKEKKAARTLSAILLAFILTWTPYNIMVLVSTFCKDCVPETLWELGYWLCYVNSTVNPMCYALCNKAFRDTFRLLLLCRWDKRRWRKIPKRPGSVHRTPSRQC

For `Cc1cc(NC(=O)CS(=O)(=O)c2cn(Cc3cccc(Cl)c3)c3ccccc23)no1`, which EC50 is on record?
The EC50 was 5.86 µM.

`O=C1C(=O)N(Cc2ccc(Oc3ccccc3)cc2)c2ccc(OC(F)(F)F)cc21` was tested. Which “potentiation, % max ACh” value (at 30 µM (top of the series)) did it give?
Its value is “inactive”.
